This is an account of results in patent publication US20090062122A1, “Cotton Growth Regulator” (FMC Corporation, priority 2006, published 2009).

The test system of experiment [1] is cotton, variety D&PL 555. Briefly: % desiccation of cotton leaves, field trial. The experiment is classed as in vivo. Here is the method: (§1) The trial was performed on cotton, variety D&PL 555. The formulated test compounds were diluted to the appropriate concentrations with water to which a crop oil concentrate (1% to 2% v/v) or a non-ionic surfactant (0.25% v/v) was added. The application of the test composition as a cotton plant growth regulator was performed using pressurized, over-the-top spray equipment consisting of a research scale boom sprayer. Deposit of the test composition was primarily to the top of the cotton plants, minimizing spray deposition to lower branches, leaves and fruit. The finished spray volume was 10 gallons per acre, with sprayer nozzle design, orientation and nozzle pressures chosen to prevent spray drift. Applications were made at first sign of cotton boll opening and at 15%, 20% and 40% open bolls.
(§2) The experimental design used randomized plots with 1 to 4 treatment rates of test composition and from 1 to 10 replications depending on the test (sees tables below). The size of each experimental plot was about 15 m^2. Testing was performed in Texas, North Carolina, Mississippi and Georgia.
(§3) Percent desiccation, percent defoliation, percent terminal control and percent open bolls were evaluated at 7 and 14 days after application (DAA) of the test composition. Inspection of cotton plants for insect control of armyworm larvae was performed at 2 DAA and insect damage to bolls was performed at the time of harvest
Desiccation refers to leaves or portions of leaves dried to debris following tissue death. […] An evaluation of the condition of leaves in the untreated check plots were observed. Then the test plots were individually evaluated. The percent of all leaves completely or partially desiccated by the test application were recorded, based upon live leaves and leaf debris within the test plot relative to foliage present in the untreated plot.
(§4) The results, shown as the mean of the indicated number of replications, were compared with results observed in the same trials with an untreated control.

The subject of experiment [2] is cotton, variety D&PL 555. Briefly: % defoliation of cotton plants, field trial. The experiment is classed as in vivo. Conditions: 20% open boll application, 1 replicate. Here is the method:
as §1, §2, §3
Defoliation refers to removal of leaves. Percent defoliation rating approximates the proportion of leaves of all sizes shed per 100 leaves present prior to application of the cotton growth regulator compound. An evaluation of the foliage in the untreated check plots was first undertaken. Then the test plots were individually evaluated. The percent of leaves dropped by the plants in the treated plot was determined using observations within the plot and comparisons to foliage in the untreated plot.
as §4

Take `C[n+]1ccc(-c2cc[n+](C)cc2)cc1.[Cl-].[Cl-]` [paraquat, 1,1′-dimethyl-4,4′-bipyridinium dichloride]: in experiment [1] (20% open boll application, 0.13 lb ai/a, 14 DAA, 1 replicate), the “% Desiccation” value turned out to be 90%. Further, the “% Defoliation” value in experiment [2] (0.13 lb ai/a, 14 DAA) worked out at 8%.
`CC1=C(C)S(=O)(=O)CCS1(=O)=O` [dimethipin, 2,3-dihydro-5,6-dimethyl-1,4-dithiin-1,1,4,4-tetraoxide]: the “% Desiccation” value in experiment [1] (20% open boll application, 0.23 lb ai/a, 7 DAA, 1 replicate) is 40%. Further, in experiment [2] (0.23 lb ai/a, 7 DAA), the “% Defoliation” value stood at 28%.
Regarding `COC(=O)CSc1cc(/N=c2\sc(=O)n3n2CCCC3)c(F)cc1Cl` [fluthiacet-methyl, methyl [[2-chloro-4-fluoro-5-[(tetrahydro-3-oxo-1H,3H-[1,3,4]thiadiazolo[3,4-a]pyridazin-1-ylidine)amino]phenyl]thio]acetate], the “% Desiccation” value in experiment [1] (first open boll application, 0.0018 lb ai/a, 7 DAA, 1 replicate) turned out to be 25%; in experiment [1] (first open boll application, 0.0018 lb ai/a, 14 DAA, 1 replicate), 17%.
For `CCOC(=O)COc1cc(-c2nn(C)c(OC(F)F)c2Cl)c(F)cc1Cl` [pyraflufen-ethyl, ethyl 2-chloro-5-[4-chloro-5-(difluoromethoxy)-1-methyl-1H-pyrazol-3-yl]-4-fluorophenoxyacetate], the “% Desiccation” value is recorded as 13% in experiment [1] (first open boll application, 0.0008 lb ai/a, 7 DAA, 3 replicates); 11% in experiment [1] (first open boll application, 0.0008 lb ai/a, 14 DAA, 3 replicates); 19% in experiment [1] (first open boll application, 0.0016 lb ai/a, 7 DAA, 3 replicates); 13% in experiment [1] (first open boll application, 0.0016 lb ai/a, 14 DAA, 3 replicates).
As to `CC(C)N.O=C(O)CNCP(=O)(O)O` [glyphosate, N-(phosphonomethyl)glycine isopropylamine salt], the “% Desiccation” value in experiment [1] (20% open boll application, 0.5 lb ai/a, 14 DAA, 1 replicate) is listed as 67%. The “% Defoliation” value in experiment [2] (0.5 lb ai/a, 14 DAA) was 7%.
`CCCCCOC(=O)COc1cc(N2C(=O)C3=C(CCCC3)C2=O)c(F)cc1Cl` [flumiclorac-pentyl ester, pentyl [2-chloro-4-fluoro-5-(1,3,4,5,6,7-hexahydro-1,3-dioxo-2H-isoindol-2-yl)phenoxy]acetate]: the “% Desiccation” value came to 16% in experiment [1] (first open boll application, 0.027 lb ai/a, 7 DAA, 3 replicates); 13% in experiment [1] (first open boll application, 0.027 lb ai/a, 14 DAA, 3 replicates); 19% in experiment [1] (first open boll application, 0.04 lb ai/a, 7 DAA, 3 replicates); 12% in experiment [1] (first open boll application, 0.04 lb ai/a, 14 DAA, 3 replicates).
As for `CCCCSP(=O)(SCCCC)SCCCC` [tribufos, S,S,S-tributyl phosphorotrithioate], the “% Desiccation” value in experiment [1] (20% open boll application, 0.14 lb ai/a, 7 DAA, 1 replicate) was 78%. In addition, in experiment [2] (0.14 lb ai/a, 7 DAA), the “% Defoliation” value turned out to be 30%.
